# Tests used:
# [1] = Solubility of calcium salt in water (concentration in filtered solution, UV method); type: physicochemical; conditions: concentration in solution filtered through 0.2 μm filter
# Procedure: Aqueous solutions of a sodium salt of the methyl ester of N-all-trans-retinoyl cysteic acid (5 ml, 15 mg/ml) and calcium chloride (3 ml, 30 mg/ml) were mixed in a 10 ml test tube. During the mixing a fine precipitation emerged. The precipitate was separated by centrifugation of the test tube at 3000 rpm for 10 min. The supernatant was removed and the precipitate was shaken with 8 ml of water followed by a new centrifugation. After three additional washing procedures as described above the supernatant was filtered through a 0.2 μm filter in order to remove possible large aggregates of the product. […] The reaction is illustrated by the below general scheme involving chlorides of any polyvalent metal ions, not only calcium ions.
# [2] = cited from earlier work
SMILES,solubility [1],Bioavailability at oral administration [2]
COC(=O)C(CS(=O)(=O)[O-])NC(=O)/C=C(C)/C=C/C=C(C)/C=C/C1=C(C)CCCC1(C)C.COC(=O)C(CS(=O)(=O)[O-])NC(=O)/C=C(C)/C=C/C=C(C)/C=C/C1=C(C)CCCC1(C)C.[Ca+2] (stereo not drawn) [calcium salt of the methyl ester of N-all-trans-retinoyl cysteic acid],200 µg/mL,–
CO[C@H]1C[C@@H]2CC[C@@H](C)[C@@](O)(O2)C(=O)C(=O)N2CCCC[C@H]2C(=O)O[C@H]([C@H](C)C[C@@H]2CC[C@@H](OCCO)[C@H](OC)C2)CC(=O)[C@H](C)/C=C(\C)[C@@H](O)[C@@H](OC)C(=O)[C@H](C)C[C@H](C)/C=C/C=C/C=C/1C [everolimus],–,about 20%
CO[C@H]1C[C@@H]2CC[C@@H](C)[C@@](O)(O2)C(=O)C(=O)N2CCCC[C@H]2C(=O)O[C@H]([C@H](C)C[C@@H]2CC[C@@H](O)[C@H](OC)C2)CC(=O)[C@H](C)/C=C(\C)[C@@H](O)[C@@H](OC)C(=O)[C@H](C)C[C@H](C)/C=C/C=C/C=C/1C [sirolimus],–,about 20%
C=CC[C@@H]1/C=C(\C)C[C@H](C)C[C@H](OC)[C@H]2O[C@@](O)(C(=O)C(=O)N3CCCC[C@H]3C(=O)O[C@H](/C(C)=C/[C@@H]3CC[C@@H](O)[C@H](OC)C3)[C@H](C)[C@@H](O)CC1=O)[C@H](C)C[C@@H]2OC [tacrolimus],–,about 20%

# Reference: patent USRE49742E1, “Drug delivery system for administration of poorly water soluble pharmaceutically active substances” (Vivesto AB, priority 2007, dated 2023)
